Assay [1] concerns the target AMPA ((RS)-α-amino-3-hydroxy-5-methyl-4-isoxazolepropionic acid) binding site. As to the kind of experiment: AMPA binding assay (T. Honoré et al., Neuroscience Letters 54, 27-32 (1985)). On the procedure: In the same assay 1,2,3,6,7,8-hexahydro-3-(hydroxyimino)-N,N,7-trimethyl-2-oxobenzo[2,1-b:3,4-c']dipyrrole-5-sulfonamide has an IC50 of 0.3 µM.
In assay [2] the test system is AMPA-induced clonic seizures. As to the kind of experiment: AMPA-induced clonic seizures (AMPA seizure test). The format is in vivo, female NMRI mice. Particulars: Mus musculus, iv; test compound i.v. 5 min before 0.3 µg icv AMPA; dose inhibiting 50% of the mice from having clonic seizures. The method, then:
AMPA given icv (intracerebroventricular) (15 µg/kg) NMRI to mice induces clonic seizures which should be inhibited by non-NMDA receptor excitatory amino acid antagonists.
Test compound was given i.v. 5 min (or p.o. 30 min) before a 0.3 µg icv administration of AMPA to 10 female NMRI mice (weighing 24-26 g) per dose. The number of mice experiencing clonic seizures within the next 5 min was noted. An ED50 value was calculated as the dose inhibiting 50% of the mice from having clonic seizures.

Structures are written as SMILES. pIC50: −log10 of the molar value.

Turning to `CN1Cc2c(S(=O)(=O)N(C)C)cc3c(c2C1)NC(=O)C3=NO` [1,2,3,6,7,8-hexahydro-3-(hydroxyimino)-N,N,7-trimethyl-2-oxobenzo[2,1-b:3,4-c']dipyrrole-5-sulfonamide], in assay [1], the negative logarithm of the IC50 (pIC50) was 6.52.
As for `CN1Cc2ccc3c(c2C1)NC(=O)C3=NO` [7-methyl-1,6,7,8-tetrahydrobenzo[2,1-b:3,4-c']dipyrrole-2,3-dione-3-oxime], the pIC50 in assay [1] is 6.00. The molecule further displayed a 50% effective dose (ED50) in assay [2] of 8 mg/kg.
As to `O=C1CCCc2c3c(cc([N+](=O)[O-])c2N1)C(=NO)C(=O)N3` [5-nitro-1H,6H-2,3,7,8,9,10-hexahydro-2,3,7-trioxo-azepino[2,3-g]indole-3-oxime], the negative-log IC50 (pIC50) in assay [1] is 5.40.

These data come from patent publication EP0529636B1, “Novel isatinoxime derivatives, their preparation and use” (NEUROSEARCH A/S, priority 1991, dated 1993).
